Like-named read-outs stand apart in the source and are kept apart here.
Assays:
[1] = target: T1, Amyloid-beta protein (1-42) (Homo sapiens, UniProt P05067); assay: Amyloid-beta (1-42) aggregation under anaesthetic gas: electrophoresis/western blot of monomer, LMW and HMW bands; type: biochemical; details: Xenon (50%) in air balanced with 5% CO2, 37° C., 24 hours
T1 construct: Amyloid-beta protein (1-42) hydrochloride salt (Bachem AG, Switzerland); purchased Bachem AG, Switzerland
Method: For detection of monomer formation Amyloid-beta protein (1-42) hydrochloride salt (Bachem AG, Switzerland) stored at −80° C. was removed and placed on ice. 1,1,1,3,3,3-hexafluoro-2-propanol (HFIP) (Sigma-Aldrich, Poole, UK) was placed on ice in the hood and allow to cool.110 HFIP was added to 0.5 mg amyloid- ? to produce a final concentration of 1 mM. The HFIP plus amyloid-beta solution was mixed on the vortex to ensure no solid remained on the vial edges. The HFIP plus amyloid-beta solution was incubated at room temperature for 60 minutes with the vial closed. The solution was then placed on ice for 10 minutes. The HFIP plus amyloid-beta solution was aliquoted into non-siliconized micro-centrifuge tubes amyloid-beta1-42). […]
When required peptide film containing tubes were removed from the −80° C. freezer and placed on ice. […] The protein was produced as above and was analysed immediately this was termed 0 hours. […]
The treated samples were centrifuged at 14,000 rpm at 4° C. for 10 minutes. […] The bands were detected with horseradish peroxidase-linked Ig anti-rabbit antibody (concentration 1:1000) (New England Biolab, Hitchin, UK) and visualised with the enhanced chemiluminesence system (ECL, Amersham Biosciences, Little Chalfont, UK). The monomer, LMW and HMW bands were located using a protein ladder to determine the molecular mass and were then quantified by densitometry (Adobe Photoshop). […]

[2] = cited from earlier work

T1 sequence (P05067 672-713 limits assumed): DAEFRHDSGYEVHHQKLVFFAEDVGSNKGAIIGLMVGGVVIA

Amyloid β aggregation (electrophoresis stain, FIG. 2A) [1]: reduces Amyloid β aggregation
SMILES: [Xe] [xenon]
safety ([2]; 12 healthy volunteers, xenon in increasing concentrations 10%, 20%, 30%, 40% (Peterson-Felix et al.)): Safety was reported
adverse events ([2]; six healthy male volunteers, 21% xenon for 20 minutes (Yagi et al.)): no adverse events
adverse events ([2]; ten healthy adults, xenon 25%, 30% and 35%, each for 5-minute intervals (Sclabassi et al.)): no adverse events

— patent US20170348349A1, “Modulation of Amyloid Beta Toxicity and Processing By Xenon Gas” (NOBLIS THERAPEUTICS, INC., priority 2016, published 2017)
